This is an account of results in patent US11464770B2, “Anticancer pharmaceutical composition” (NATIONAL CANCER CENTER, priority 2016, dated 2022).

The assay has as its system prostate cancer cell lines (e.g. DU145/TXR). Briefly: Cell based assay, cell viability (CellTiter-Glo), prostate cancer cell lines. The note with it: Homo sapiens, 72 hours treatment, final concentration 0 to 2 μM. As to the method: Commercially available bladder cancer, prostate cancer, lung cancer, breast cancer, blood cancer, pancreatic cancer, colorectal cancer, brain cancer, neuroblastoma, melanoma, liver cancer, cervical carcinoma, ovarian cancer, renal cancer, and papilloma cell lines were each treated with trypsin-EDTA and cultured, followed by being seeded in each well of a 96 well plate. After 24 hours of treatment at constant temperature, the respective cells were treated with the candidate compound so that a final concentration became 0 to 2 μM. The treated cells were additionally cultured for 72 hours, and cell viability was measured by using an ATP detection method (CellTiter-Glo® Luminescent Cell Viability Assay, Promega).
For orientation: ATP-based viability assays read luminescence as a measure of living cells.

The mark [1] stands for this setting: CWR22 cells, read-out: IC50, prostate cancer cell line CWR22.
The mark [2] stands for this setting: DU-145, DU145/TXR cells, read-out: IC50, prostate cancer cell line DU145/TXR.
The mark [3] stands for this setting: DU-145, DU145 cells, read-out: IC50, prostate cancer cell line DU145.
Setting [4] is: LNcap cells, read-out: IC50, prostate cancer cell line LNcap.
[5] abbreviates: PC-3 cells, read-out: IC50, prostate cancer cell line PC-3.

Like-named read-outs stand apart in the source and are kept apart here.

For `CC(=O)c1c([S+](C)[O-])[nH]c2c(Br)ccc(Cl)c2c1=O` (centres unmarked) [Compound 1, 3-acetyl-8-bromo-5-chloro-2-(methylsulfinyl)quinolin-4(1H)-one], the IC50 runs as follows: under setting [1], 1830 nM; under setting [2], 1650 nM; under setting [3], 1900 nM; under setting [4], > 2000 nM; under setting [5], 1640 nM.

In the case of `CSc1[nH]c2c(Br)ccc(Cl)c2c(=O)c1C(C)=O` [Compound 2, 3-acetyl-8-bromo-5-chloro-2-(methylthio)quinolin-4(1H)-one], the IC50 was > 2000 nM under setting [1]; > 2000 nM under setting [2]; > 2000 nM under setting [3]; > 2000 nM under setting [4]; > 2000 nM under setting [5].

Take `CC(=O)c1c(SCc2ccccc2)[nH]c2c(Br)ccc(Cl)c2c1=O` [Compound 3, 3-acetyl-2-(benzylthio)-8-bromo-5-chloroquinolin-4(1H)-one]: the IC50 is > 2000 nM under setting [1]; > 2000 nM under setting [2]; > 2000 nM under setting [3]; > 2000 nM under setting [4]; > 2000 nM under setting [5].

`CSc1c(C(C)=O)c(=O)c2c(Cl)ccc(Br)c2n1C` [Compound 5, 3-acetyl-8-bromo-5-chloro-1-methyl-2-(methylthio)quinolin-4(1H)-one]: the IC50 is > 2000 nM under setting [1]; > 2000 nM under setting [2]; > 2000 nM under setting [3]; > 2000 nM under setting [4]; > 2000 nM under setting [5].

As to `CC(=O)c1c([S+](C)[O-])[nH]c2c(Cl)ccc(Cl)c2c1=O` (centres unmarked) [Compound 6, 3-acetyl-5,8-dichloro-2-(methylsulfinyl)quinolin-4(1H)-one], the IC50 under setting [1] was 1990 nM; the IC50 under setting [2] turned out to be 1540 nM; the IC50 under setting [3] stood at 1800 nM; the IC50 under setting [4] was > 2000 nM; the IC50 under setting [5] came to 1680 nM.

For `CSc1c(C(C)=O)c(=O)c2cc(F)ccc2n1C` [Compound 7, 3-acetyl-6-fluoro-1-methyl-2-(methylthio)quinolin-4(1H)-one], the IC50 by setting is: under setting [1], > 2000 nM; under setting [2], > 2000 nM; under setting [3], > 2000 nM; under setting [4], > 2000 nM; under setting [5], > 2000 nM.

For the molecule `CSc1[nH]c2ccc(F)cc2c(=O)c1C(C)=O` [Compound 8, 1-(6-fluoro-4-hydroxy-2-(methylthio)quinolin-3-yl)ethan-1-one], the IC50 reads like this: under setting [1], > 2000 nM; under setting [2], > 2000 nM; under setting [3], > 2000 nM; under setting [4], > 2000 nM; under setting [5], > 2000 nM.

`CC(=O)c1c([S+](C)[O-])n(C(=O)c2ccc(Br)cc2)c2c(Br)ccc(Cl)c2c1=O` (centres unmarked) [Compound 9, 3-acetyl-8-bromo-1-(4-bromobenzoyl)-5-chloro-2-(methylsulfinyl)quinolin-4(1H)-one]: the IC50 under setting [1] amounted to 1600 nM; the IC50 under setting [2] was found to be 1350 nM; the IC50 under setting [3] turned out to be 1590 nM; the IC50 under setting [4] is > 2000 nM; the IC50 under setting [5] amounted to 1470 nM.

`CC(=O)c1c(SCc2ccc(Cl)cc2)[nH]c2c(Br)ccc(Cl)c2c1=O` [Compound 10, 3-acetyl-8-bromo-5-chloro-2-((4-chlorobenzyl)thio)quinolin-4(1H)-one]: the IC50 under setting [1] was > 2000 nM; the IC50 under setting [2] is > 2000 nM; the IC50 under setting [3] was > 2000 nM; the IC50 under setting [4] was > 2000 nM; the IC50 under setting [5] was > 2000 nM.

As for `CC(=O)c1c([S+]([O-])Cc2ccc(Cl)cc2)[nH]c2c(Br)ccc(Cl)c2c1=O` (centres unmarked) [Compound 11, 3-acetyl-8-bromo-5-chloro-2-((4-chlorobenzyl)sulfinyl)quinolin-4(1H)-one], the IC50 by setting is: under setting [1], > 2000 nM; under setting [2], 1810 nM; under setting [3], > 2000 nM; under setting [4], > 2000 nM; under setting [5], > 2000 nM.

Consider `CC(=O)c1c(Sc2ccccc2)[nH]c2c(Br)ccc(Cl)c2c1=O` [Compound 12, 3-acetyl-8-bromo-5-chloro-2-(phenylthio)quinolin-4(1H)-one], for which the IC50 was > 2000 nM under setting [1]; > 2000 nM under setting [2]; > 2000 nM under setting [3]; > 2000 nM under setting [4]; > 2000 nM under setting [5].

For the molecule `CC(=O)c1c([S+]([O-])c2ccccc2)[nH]c2c(Br)ccc(Cl)c2c1=O` (centres unmarked) [Compound 13, 3-acetyl-8-bromo-5-chloro-2-(phenylsulfinyl)quinolin-4(1H)-one], the IC50 is > 2000 nM under setting [1], > 2000 nM under setting [2], > 2000 nM under setting [3] and > 2000 nM under setting [4].

Take `COc1ccccc1Sc1[nH]c2c(Br)ccc(Cl)c2c(=O)c1C(C)=O` [Compound 14, 3-acetyl-8-bromo-5-chloro-2-((2-methoxyphenyl)thio)quinolin-4(1H)-one]: the IC50 reads like this: under setting [1], > 2000 nM; under setting [2], > 2000 nM; under setting [3], > 2000 nM; under setting [4], > 2000 nM; under setting [5], > 2000 nM.

For `COc1ccccc1[S+]([O-])c1[nH]c2c(Br)ccc(Cl)c2c(=O)c1C(C)=O` (centres unmarked) [Compound 15, 3-acetyl-8-bromo-5-chloro-2-((2-methoxyphenyl)sulfinyl)quinolin-4(1H)-one], the IC50 under setting [1] was > 2000 nM, the IC50 under setting [2] worked out at 1880 nM, the IC50 under setting [3] is > 2000 nM and the IC50 under setting [4] was > 2000 nM.

Take `CC(=O)c1c(Sc2ccc(Br)cc2)[nH]c2c(Br)ccc(Cl)c2c1=O` [Compound 16, 3-acetyl-8-bromo-2-((4-bromophenyl)thio)-5-chloroquinolin-4(1H)-one]: the IC50 was > 2000 nM under setting [1]; > 2000 nM under setting [2]; > 2000 nM under setting [3]; > 2000 nM under setting [4]; > 2000 nM under setting [5].

As for `CC(=O)c1c([S+]([O-])c2ccc(Br)cc2)[nH]c2c(Br)ccc(Cl)c2c1=O` (centres unmarked) [Compound 17, 3-acetyl-8-bromo-2-((4-bromophenyl)sulfinyl)-5-chloroquinolin-4(1H)-one], the IC50 by setting is: under setting [1], > 2000 nM; under setting [2], > 2000 nM; under setting [3], > 2000 nM; under setting [4], > 2000 nM.

For the molecule `CSc1c(C(C)=O)c(=O)c2c(Cl)ccc(Br)c2n1C(C)=O` [Compound 18, 1,1′-(8-bromo-5-chloro-2-(methylthio)-4-oxoquinoline-1,3(4H)-diyl)bis(ethan-1-one)], the IC50 was > 2000 nM under setting [1]; > 2000 nM under setting [2]; > 2000 nM under setting [3]; > 2000 nM under setting [4]; > 2000 nM under setting [5].

As for `CC(=O)c1c([S+](C)[O-])n(C(C)=O)c2c(Br)ccc(Cl)c2c1=O` (centres unmarked) [Compound 19, 1,1′-(8-bromo-5-chloro-2-(methylsulfinyl)-4-oxoquinoline-1,3(4H)-diyl)bis(ethan-1-one)], the IC50 by setting is: under setting [1], > 2000 nM; under setting [2], > 2000 nM; under setting [3], > 2000 nM; under setting [4], > 2000 nM; under setting [5], > 2000 nM.

In the case of `CC(=O)c1c([S+]([O-])Cc2ccccc2)n(C(=O)c2ccc(Br)cc2)c2c(Br)ccc(Cl)c2c1=O` (centres unmarked) [Compound 20, 3-acetyl-2-(benzylsulfinyl)-8-bromo-1-(4-bromobenzoyl)-5-chloroquinolin-4(1H)-one], the IC50 was > 2000 nM under setting [1]; > 2000 nM under setting [2]; > 2000 nM under setting [3]; > 2000 nM under setting [4]; > 2000 nM under setting [5].

As for `CC(=O)c1c(S(C)(=O)=O)n(C(=O)c2ccc(Br)cc2)c2c(Br)ccc(Cl)c2c1=O` [Compound 21, 3-acetyl-8-bromo-1-(4-bromobenzoyl)-5-chloro-2-(methylsulfonyl)quinolin-4(1H)-one], the IC50 was > 2000 nM under setting [1]; > 2000 nM under setting [2]; > 2000 nM under setting [3]; > 2000 nM under setting [4]; > 2000 nM under setting [5].

As for `CC(=O)c1c([S+](C)[O-])n(Cc2ccc(F)c(Cl)c2)c2c(Br)ccc(Cl)c2c1=O` (centres unmarked) [Compound 22, 3-acetyl-8-bromo-5-chloro-1-(3-chloro-4-fluorobenzyl)-2-(methylsulfinyl)quinolin-4(1H)-one], the IC50 under setting [1] was > 2000 nM; the IC50 under setting [2] is > 2000 nM; the IC50 under setting [3] is > 2000 nM; the IC50 under setting [4] was > 2000 nM; the IC50 under setting [5] was > 2000 nM.

For `CC(=O)c1c(SCc2ccccc2)n(C(=O)c2ccc(Br)cc2)c2c(Br)ccc(Cl)c2c1=O` [Compound 23, 3-acetyl-2-(benzylthio)-8-bromo-1-(4-bromobenzoyl)-5-chloroquinolin-4(1H)-one], the IC50 under setting [1] is > 2000 nM; the IC50 under setting [2] is > 2000 nM; the IC50 under setting [3] is > 2000 nM; the IC50 under setting [4] was > 2000 nM; the IC50 under setting [5] is > 2000 nM.

For `CC(=O)c1c(SC(C)C)[nH]c2c(Br)ccc(Cl)c2c1=O` [Compound 24, 3-acetyl-8-bromo-5-chloro-2-(isopropylthio)quinolin-4(1H)-one], the IC50 by setting is: under setting [1], > 2000 nM; under setting [2], > 2000 nM; under setting [3], > 2000 nM; under setting [4], > 2000 nM; under setting [5], > 2000 nM.

`CC(=O)c1c([S+]([O-])C(C)C)[nH]c2c(Br)ccc(Cl)c2c1=O` (centres unmarked) [Compound 25, 3-acetyl-8-bromo-5-chloro-2-(isopropylsulfinyl)quinolin-4(1H)-one]: the IC50 under setting [1] is > 2000 nM; the IC50 under setting [2] is > 2000 nM; the IC50 under setting [3] was > 2000 nM; the IC50 under setting [4] was > 2000 nM; the IC50 under setting [5] is > 2000 nM.

In the case of `CC(=O)c1c([S+]([O-])C(C)c2ccccc2)[nH]c2c(Br)ccc(Cl)c2c1=O` (centres unmarked) [Compound 26, 3-acetyl-8-bromo-5-chloro-2-((1-phenylethyl)sulfinyl)quinolin-4(1H)-one], the IC50 was > 2000 nM under setting [1], > 2000 nM under setting [2], > 2000 nM under setting [3] and > 2000 nM under setting [4].

`CC(=O)c1c(SCc2cccc(C#N)c2)[nH]c2c(Br)ccc(Cl)c2c1=O` [Compound 27, 3-(((3-acetyl-8-bromo-5-chloro-4-oxo-1,4-dihydroquinolin-2-yl)thio)methyl)benzonitrile]: the IC50 by setting is: under setting [1], > 2000 nM; under setting [2], > 2000 nM; under setting [3], > 2000 nM; under setting [4], > 2000 nM; under setting [5], > 2000 nM.

`CC(=O)c1c([S+]([O-])Cc2cccc(C#N)c2)[nH]c2c(Br)ccc(Cl)c2c1=O` (centres unmarked) [Compound 28, 3-(((3-acetyl-8-bromo-5-chloro-4-oxo-1,4-dihydroquinolin-2-yl)sulfinyl)methyl)benzonitrile]: the IC50 reads like this: under setting [1], 1070 nM; under setting [2], 1010 nM; under setting [3], 1280 nM; under setting [4], 1340 nM; under setting [5], 1160 nM.
